Source: publication PMC10233829 (ACS Omega, 2023)
Values after ≈ are worked out from the molar mass of the structure shown. Values joined by “and” are separate entries in the source; they are usually repeats but may differ in a detail not shown here. Identical values can stand only once. Like-named read-outs stand apart in the source and are kept apart here.

What was measured:
[1] = Trypan blue exclusion assay; type: cell-based, human; conditions: human; HaCaT, 72 h, compound at IC50
From the text: (§1) To monitor cell proliferation in response to long-term conjugate treatment, the trypan-blue exclusion assay was further performed. […] Thus, they exerted a cytostatic effect on them, suppressing their growth and proliferation. […]. […] […].
(§2) Figure 9 Trypan blue assay. The effect of compounds 3, 15, and 21 on cell number in PC3 and HaCaT cells. […] Data are expressed as the mean ± SD. ***p ≤ 0.001, **p ≤ 0.002, and *p ≤ 0.01, as compared to the control.
(§3) Figure 10 Trypan blue assay. The effect of compounds 3, 15, and 21 on viability in PC3 and HaCaT cells. […] Data are expressed as the mean ± SD. ***p ≤ 0.001, **p ≤ 0.01, and *p ≤ 0.05, as compared to the control.

HaCaT cells [2] = assay: Trypan blue exclusion assay; type: cell-based, human; conditions: for Cell number (% of control) / Cell number x 10^6: 72 h, compound at IC50; for impact on the number of live human keratinocytes: compounds at their IC50 for PC3 cells (2.02, 15.7, 4.8 μM)
From the text: as §1, §2, §3

PC3 cells [3] = assay: Trypan blue exclusion assay; type: cell-based, human; conditions: for Cell number (% of control) / Cell number x 10^6 / Viability (%): PC3, 72 h, compound at IC50
From the text: as §1, §2, §3

M. tuberculosis Spec 210 = assay: microbe, parasite or virus in culture; type: cell-based, Mycobacterium tuberculosis
[4] = test system: IL-6 level in HaCaT cells; assay: Interleukin-6 ELISA; type: cell-based, human; conditions: IC50 concentration, 72 h
Experimental: (§4) The level of interleukin-6 (IL-6) in PC3 and HaCaT cell lines was measured by commercial human IL-6 ELISA kits Diaclon SAS (Besancon Cedex, France). […] The untreated cells were used as the control. The IL-6 level in a cell culture supernatant was measured using an enzyme-linked immunosorbent assay in accordance with the manufacturer’s instruction. The experiment was repeated three times.

IL-6 level in PC3 cells = assay: Interleukin-6 ELISA; type: cell-based, human; conditions: PC3, IC50 concentration, 72 h
Experimental: as §4

HaCaT cells [5] = assay: Annexin V-FITC/PI binding assay, flow cytometry; type: cell-based, human; conditions: 72 h, IC50 concentration; for Dead cells / Early apoptosis / Late apoptosis / Live cells: HaCaT
Experimental: (§5) The PC3 and HaCaT cells were cultured and harvested under the conditions mentioned in the Cell Culture section and seeded in 12-well plates (1 × 10^5 cells per well). […] The apoptotic effect was performed using the annexin V-FITC/propidium iodide (PI) apoptosis assay kit (Becton Dickinson, Pharmingen) according to the manufacturer’s instructions and analyzed by flow cytometry (Becton Dickinson). The cells which were annexin V-FITC-positive and PI-negative were identified as early apoptotic and both annexin V-FITC- and PI-positive as late apoptotic or necrotic. The experiment was repeated three times.

PC3 cells [6] = assay: Annexin V-FITC/PI binding assay, flow cytometry; type: cell-based, human; conditions: IC50 concentration; for PC3 cells in late apoptosis or necrosis: 72 h; for Dead cells / Early apoptosis / Late apoptosis / Live cells: PC3, 72 h
Experimental: as §5

S. aureus DNA gyrase = S. aureus DNA gyrase (Staphylococcus aureus, UniProt P0A0K8+P20831); assay: biochemical; conditions: supercoiling of relaxed pBR322
Experimental: The enzymatic assay was carried using commercial topoisomerases type II as previously described by Alt et al.[55] with some modifications.
Briefly, 1 U of the enzyme (gyrase or topo IV, Inspiralis. Norwich, UK) isolated from S. aureus converts […] of relaxed pBR322 DNA to the supercoiled form (gyrase) or decatenates 200 ng of kinetoplast DNA (topo IV). […] The reactions were terminated by adding an equal volume of STEB buffer (40% sucrose, 100 mM Tris–HCl pH 8, 10 mM EDTA, and 0.5 mg/mL bromophenol blue), followed by extraction with 1 volume of chloroform/isoamyl alcohol (24:1). The samples were vortexed and centrifuged, and 20 μL of the aqueous phase of each sample was loaded onto a 1% agarose gel and left for 30 min prior to electrophoresis to allow diffusion of salt. […] Gels were stained with ethidium bromide and visualized under UV light in a transilluminator (ChemiDoc MP, Bio Rad).

[7] = test system: P. aeruginosa ATCC 15442 and E. coli ATCC 25922; assay: MIC, standard Gram-negative rods as a panel; type: cell-based; conditions: P. aeruginosa ATCC 15442, E. coli ATCC 25922; for MIC: read-out: MIC against standard Gram-negative rods (range over strains)
[8] = target: T1, S. aureus topoisomerase IV (Staphylococcus aureus, UniProt P0C1S7+P0C1U9); assay: Topoisomerase IV decatenation assay; type: biochemical; conditions: decatenation of kinetoplast DNA; read-out: IC50 S. aureus topoisomerase IV (converted)
T1 construct: purchased Inspiralis, Norwich, UK
Experimental: Briefly, 1 U of the enzyme (gyrase or topo IV, Inspiralis. Norwich, UK) isolated from S. aureus converts 0.5 mg of relaxed pBR322 DNA to the supercoiled form (gyrase) or decatenates 200 ng of kinetoplast DNA (topo IV). […] The reactions were terminated by adding an equal volume of STEB buffer (40% sucrose, 100 mM Tris–HCl pH 8, 10 mM EDTA, and 0.5 mg/mL bromophenol blue), followed by extraction with 1 volume of chloroform/isoamyl alcohol (24:1). The samples were vortexed and centrifuged, and 20 μL of the aqueous phase of each sample was loaded onto a 1% agarose gel and left for 30 min prior to electrophoresis to allow diffusion of salt. […] Gels were stained with ethidium bromide and visualized under UV light in a transilluminator (ChemiDoc MP, Bio Rad).

E. coli ATCC 25922 = assay: Bacterial growth curve assay (OD600, 18 h); type: cell-based, Escherichia coli; conditions: for lag phase elongated to: E. coli, 0.006 μg/mL
[9] = test system: E. coli ATCC 25922 biofilm; assay: Biofilm eradication assay (crystal violet); type: cell-based, Escherichia coli; conditions: 4 MIC
Experimental: Three bacterial strains E. coli ATCC 25922, P. aeruginosa ATCC 15442, and S. aureus ATCC 6538 were used to assign biofilm eradication properties of compounds 5, 10, 11, and CP as the reference drug. To quantify the biomass of the bacteria biofilm, the crystal violet method was used with some modifications.[52] The bacteria were incubated to the mid-log phase, diluted to 103 cfu/mL in brain–heart infusion medium, and seeded in a 96-well plate. Bacterial biofilms were formed by overnight incubation at 37 °C with rotation at 140 rpm. After biofilm formation, all wells were washed with PBS to remove nonadherent bacteria cells. […] The biofilms with tested substances were incubated for 20 h at 37 °C with shaking at 140 rpm. The bacterial biofilm was stained with 0.1% (v/v) CV for 10 min. Afterward, the biofilm was rinsed with PBS and dried. To solubilize the adsorbed crystal violet, wells with stained biofilms were incubated in 30% acetic acid. To estimate the total biofilm biomass, optical density (OD) of the resulting solution was measured at 595 nm. Biofilm assays were repeated at least three times on different days, with two technical replicates assessed each time. A minimum eradication concentration (MBEC) was determined as the lowest concentration of compound, which could damage ≥50% of the formed biofilm structure.

[10] = test system: Staphylococci (standard strains); assay: MIC, standard Gram-positive strains as a panel; type: cell-based, S. aureus, S. epidermidis; conditions: for MIC: read-out: MIC toward standard Staphylococci (range over strains)
P. aeruginosa ATCC 15442 = assay: Bacterial growth curve assay (OD600, 18 h); type: cell-based, Pseudomonas aeruginosa; conditions: for dose that fully inhibited bacterial growth: P. aeruginosa ATCC 15442, 18 h; for exponential phase shifted to: P. aeruginosa
[11] = standard Gram-positive strains of Table 1

Chain of S. aureus DNA gyrase (P0A0K8 whole entry): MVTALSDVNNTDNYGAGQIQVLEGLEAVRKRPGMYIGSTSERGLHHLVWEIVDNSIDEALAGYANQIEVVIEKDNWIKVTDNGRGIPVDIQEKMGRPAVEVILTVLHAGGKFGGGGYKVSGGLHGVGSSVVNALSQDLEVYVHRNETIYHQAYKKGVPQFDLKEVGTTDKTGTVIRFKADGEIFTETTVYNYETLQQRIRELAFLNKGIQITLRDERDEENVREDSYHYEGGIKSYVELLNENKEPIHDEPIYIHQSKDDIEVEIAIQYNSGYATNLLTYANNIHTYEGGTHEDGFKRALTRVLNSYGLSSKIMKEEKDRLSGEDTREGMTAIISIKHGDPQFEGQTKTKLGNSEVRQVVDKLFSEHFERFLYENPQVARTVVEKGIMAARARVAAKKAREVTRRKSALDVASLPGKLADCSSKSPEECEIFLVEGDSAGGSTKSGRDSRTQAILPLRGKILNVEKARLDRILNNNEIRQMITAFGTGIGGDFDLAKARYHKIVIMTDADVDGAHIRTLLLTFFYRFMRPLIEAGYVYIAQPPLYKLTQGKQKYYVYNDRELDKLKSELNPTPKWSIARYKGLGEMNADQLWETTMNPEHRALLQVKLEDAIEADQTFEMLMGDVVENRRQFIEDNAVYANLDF
Chain of S. aureus DNA gyrase (P20831 whole entry): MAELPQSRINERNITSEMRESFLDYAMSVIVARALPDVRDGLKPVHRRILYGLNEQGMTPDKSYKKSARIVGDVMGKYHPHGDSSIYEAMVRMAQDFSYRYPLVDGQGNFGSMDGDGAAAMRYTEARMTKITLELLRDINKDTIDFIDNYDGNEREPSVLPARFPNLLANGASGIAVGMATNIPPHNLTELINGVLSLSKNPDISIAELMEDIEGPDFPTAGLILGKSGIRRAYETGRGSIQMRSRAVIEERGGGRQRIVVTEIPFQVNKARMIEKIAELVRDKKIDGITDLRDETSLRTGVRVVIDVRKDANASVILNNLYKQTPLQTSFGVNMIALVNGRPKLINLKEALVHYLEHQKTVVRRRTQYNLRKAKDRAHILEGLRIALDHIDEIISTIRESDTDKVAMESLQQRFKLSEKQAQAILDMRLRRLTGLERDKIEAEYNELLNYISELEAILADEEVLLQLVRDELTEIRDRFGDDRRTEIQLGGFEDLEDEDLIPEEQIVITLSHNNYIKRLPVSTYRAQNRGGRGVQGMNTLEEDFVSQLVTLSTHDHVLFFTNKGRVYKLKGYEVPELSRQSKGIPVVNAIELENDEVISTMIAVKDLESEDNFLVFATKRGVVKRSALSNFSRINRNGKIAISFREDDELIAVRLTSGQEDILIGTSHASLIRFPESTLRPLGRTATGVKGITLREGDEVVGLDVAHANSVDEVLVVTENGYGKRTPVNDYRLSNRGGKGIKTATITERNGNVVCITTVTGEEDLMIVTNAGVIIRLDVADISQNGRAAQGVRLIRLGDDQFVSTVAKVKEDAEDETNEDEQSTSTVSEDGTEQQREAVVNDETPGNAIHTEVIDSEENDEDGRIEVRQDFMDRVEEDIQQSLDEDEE
T1 sequence (P0C1U9 whole entry): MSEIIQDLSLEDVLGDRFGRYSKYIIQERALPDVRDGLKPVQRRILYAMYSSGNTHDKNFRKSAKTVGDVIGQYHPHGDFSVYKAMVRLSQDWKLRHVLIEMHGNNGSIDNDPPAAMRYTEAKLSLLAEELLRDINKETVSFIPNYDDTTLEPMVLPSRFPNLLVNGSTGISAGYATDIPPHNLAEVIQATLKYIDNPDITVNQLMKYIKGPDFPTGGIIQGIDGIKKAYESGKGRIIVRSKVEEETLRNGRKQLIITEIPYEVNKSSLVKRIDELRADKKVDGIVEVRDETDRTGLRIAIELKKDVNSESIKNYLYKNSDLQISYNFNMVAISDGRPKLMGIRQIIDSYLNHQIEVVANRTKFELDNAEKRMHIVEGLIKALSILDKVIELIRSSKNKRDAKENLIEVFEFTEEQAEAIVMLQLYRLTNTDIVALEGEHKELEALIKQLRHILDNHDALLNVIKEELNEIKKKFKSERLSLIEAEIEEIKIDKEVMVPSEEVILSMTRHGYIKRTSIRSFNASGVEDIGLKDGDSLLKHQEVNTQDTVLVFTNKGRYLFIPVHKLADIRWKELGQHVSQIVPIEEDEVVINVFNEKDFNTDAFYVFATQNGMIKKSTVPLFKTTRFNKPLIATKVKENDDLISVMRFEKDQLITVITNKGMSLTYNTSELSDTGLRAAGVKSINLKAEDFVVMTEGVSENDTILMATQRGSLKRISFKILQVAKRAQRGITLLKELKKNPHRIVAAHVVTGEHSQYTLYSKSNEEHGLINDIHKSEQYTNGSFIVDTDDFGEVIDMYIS
T1 sequence (P0C1S7 whole entry): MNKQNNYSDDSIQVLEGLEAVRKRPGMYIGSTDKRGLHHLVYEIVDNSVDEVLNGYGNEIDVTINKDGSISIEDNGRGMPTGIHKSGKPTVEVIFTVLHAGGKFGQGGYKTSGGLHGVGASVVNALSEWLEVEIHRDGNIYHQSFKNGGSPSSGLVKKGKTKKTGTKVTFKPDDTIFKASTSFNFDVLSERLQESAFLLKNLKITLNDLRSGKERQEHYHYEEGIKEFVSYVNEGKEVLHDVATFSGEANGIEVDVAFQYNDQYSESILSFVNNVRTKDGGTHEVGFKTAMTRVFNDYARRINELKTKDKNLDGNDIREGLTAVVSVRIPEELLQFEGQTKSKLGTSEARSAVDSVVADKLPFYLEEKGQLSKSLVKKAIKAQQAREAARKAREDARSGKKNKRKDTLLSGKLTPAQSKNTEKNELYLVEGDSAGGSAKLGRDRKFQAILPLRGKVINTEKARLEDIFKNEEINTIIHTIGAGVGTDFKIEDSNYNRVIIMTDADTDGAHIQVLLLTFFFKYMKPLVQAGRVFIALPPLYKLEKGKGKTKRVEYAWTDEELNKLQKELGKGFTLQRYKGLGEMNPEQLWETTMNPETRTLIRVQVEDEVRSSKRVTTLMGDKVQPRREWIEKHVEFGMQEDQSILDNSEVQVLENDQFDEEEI

| Structure (SMILES) | viability at 72 h [1] [%] | Cell number (% of control) (HaCaT cells [2]) | Cell number x 10^6 (HaCaT cells [2]) | impact on the number of live human keratinocytes (HaCaT cells [2]) | Cell number (% of control) (PC3 cells [3]) | Cell number x 10^6 (PC3 cells [3]) | Viability (%) (PC3 cells [3]) | effect on IL-6 in human keratinocytes [4] | HaCaT cells in late apoptosis/necrosis (HaCaT cells [5]) | Dead cells (HaCaT cells [5]) [%] | Early apoptosis (HaCaT cells [5]) [%] | Late apoptosis (HaCaT cells [5]) [%] | Live cells (HaCaT cells [5]) [%] | PC3 cells in late apoptosis or necrosis (PC3 cells [6]) [%] | Dead cells (PC3 cells [6]) [%] | Early apoptosis (PC3 cells [6]) | IC50 (S. aureus DNA gyrase) [µM] | MIC [7] [µg/mL] | IC50 [8] [µM] | share of CP potency kept against standard Gram-negative rods [7] | also measured |
| --- | --- | --- | --- | --- | --- | --- | --- | --- | --- | --- | --- | --- | --- | --- | --- | --- | --- | --- | --- | --- | --- |
| O=C(O)c1cn(C2CC2)c2cc(N3CCN(C(=O)CCl)CC3)c(F)cc2c1=O [Compound 3, 7-[4-(2-Chloroacetyl)-piperazin-1-yl]-1-cyclopropyl-6-fluoro-4-oxo-1,4-dihydro-quinoline-3-carboxylic Acid] | 75 ± 2.23 | 12.15 % of control | 0.2 ± 0.01 x 10^6 | negligible impact | 1.97 % of control | 0.04 ± 0.01 x 10^6 | 52 ± 2.40 | stimulated human keratinocytes to produce IL-6 | 47.23% | 9.99 ± 1.17 | 10.07 ± 1.22 | 37.24 ± 2.27 | 42.70 ± 2.81 | 78.22 | 66.10 ± 6.31 | 1.51 ± 0.04% | 61.3 | ≤ 1 | 78.5 |  | decrease of PC3 cell viability (PC3 cells [3]; 72 h, IC50 concentration): 48%; fold more effective than the reference tuberculostatics (M. tuberculosis Spec 210; M. tuberculosis Spec. 210): 8–32 fold; decrease of IL-6 release as compared to the control (IL-6 level in PC3 cells): 3.5 times; Late apoptosis (PC3 cells [6]): 12.12 ± 2.18%; Live cells (PC3 cells [6]): 20.27 ± 0.45% |
| O=C(O)c1cn(C2CC2)c2cc(N3CCN(CCCCCCCCCCC(=O)N4CCN(c5cc6c(cc5F)c(=O)c(C(=O)O)cn6C5CC5)CC4)CC3)c(F)cc2c1=O [Compound 21, CP–Undecanoyl–CP Dimer] | 94 ± 4.01 | 19.35 % of control | 0.3 ± 0.01 x 10^6 | negligible impact | 6.22 % of control | 0.2 ± 0.03 x 10^6 | 78 ± 1.50 | stimulated human keratinocytes to produce IL-6 | 34.95% | 14.24 ± 3.78 | 10.52 ± 1.07 | 20.71 ± 4.34 | 54.53 ± 3.34 | 69.29 | 52.91 ± 3.99 | 28.22 ± 0.98% and 28.22% |  |  |  |  | fold more effective than the reference tuberculostatics (M. tuberculosis Spec 210): 8–32 fold; Late apoptosis (PC3 cells [6]): 16.28 ± 2.80%; Live cells (PC3 cells [6]): 2.59 ± 0.20% |
| O=C(O)c1cn(C2CC2)c2cc(N3CCN(C(=O)CCCCBr)CC3)c(F)cc2c1=O [Compound 11, 7-[4-(5-Bromopentanoyl)-piperazin-1-yl]-1-cyclopropyl-6-fluoro-4-oxo-1,4-dihydro-quinoline-3-carboxylic Acid] |  |  |  |  |  |  |  |  |  |  |  |  |  |  |  |  | 16.2 | 0.025 to 0.1 (≈ 0.0506 to 0.202 µM) | 12.1 | 60% | concentration that inhibited bacterial cell growth (E. coli ATCC 25922; E. coli ATCC 25922, 18 h): ≥ 0.025 µg/mL; eradication of the biofilm formed by E. coli [9]: approx. 20%; fold more active than CP toward standard Staphylococci [10, 11]: 1.25–2.5 fold; melting point: 225.7 to 226.2 °C; dose that fully inhibited bacterial growth (P. aeruginosa ATCC 15442): ≥ 0.2 µg/mL |
| O=C(O)c1cn(C2CC2)c2cc(N3CCN(C(=O)C4CC4)CC3)c(F)cc2c1=O [Compound 2, 7-(4-Cyclopropanecarbonyl-piperazin-1-yl)-1-cyclopropyl-6-fluoro-4-oxo-1,4-dihydro-quinoline-3-carboxylic Acid] |  |  |  |  |  |  |  |  |  |  |  |  |  |  |  |  | 22.3 | 0.025 to 0.2 (≈ 0.0626 to 0.501 µM) | 23.8 | 30–60% | MIC [10]: 0.05 to 0.4 µg/mL (≈ 0.125 to 1 µM); fold more active than CP toward standard Staphylococci [10, 11]: 1.25–10 fold |
| O=C(O)c1cn(C2CC2)c2cc(N3CCN(C(=O)CCCCl)CC3)c(F)cc2c1=O [Compound 5, 7-[4-(4-Chlorobutyryl)-piperazin-1-yl]-1-cyclopropyl-6-fluoro-4-oxo-1,4-dihydro-quinoline-3-carboxylic Acid] |  |  |  |  |  |  |  |  |  |  |  |  |  |  |  |  | 7.34 | 0.025 to 0.2 (≈ 0.0574 to 0.459 µM) | 6.19 | 30–60% | lag phase elongated to (E. coli ATCC 25922): 6 h; eradication of the biofilm formed by E. coli [9]: approx. 20%; dose that fully inhibited bacterial growth (P. aeruginosa ATCC 15442): ≥ 0.2 µg/mL; exponential phase shifted to (P. aeruginosa ATCC 15442; 0.03 μg/mL): 7 to 12 h; exponential phase shifted to (P. aeruginosa ATCC 15442; 0.05 μg/mL): 8 to 15 h |
| O=C(O)c1cn(C2CC2)c2cc(N3CCN(C(=O)CCC(F)(F)F)CC3)c(F)cc2c1=O [Compound 15, 7-[4-(4,4,4-Trifluorobutyryl)-piperazin-1-yl]-1-cyclopropyl-6-fluoro-4-oxo-1,4-dihydro-quinoline-3-carboxylic Acid] | 90 ± 3.04 | 48.38 % of control | 0.8 ± 0.10 x 10^6 | negligible impact | 12.04 % of control | 0.3 ± 0.08 x 10^6 | 82 ± 2.64 | No significant pro- or anti-inflammatory properties | did not indicate appreciable apoptosis-inducing action | 0.3 ± 0.01 | 11.63 ± 2.93 | 0.77 ± 0.05 | 87.32 ± 2.20 | 37.64 | 21.15 ± 3.29 | 1.15 ± 0.10% |  |  |  |  | decrease of IL-6 release as compared to the control (IL-6 level in PC3 cells): 1.9 times; Late apoptosis (PC3 cells [6]): 16.49 ± 2.65%; Live cells (PC3 cells [6]): 61.21 ± 2.06%; MIC [10, 11]: 0.2 µg/mL (≈ 0.439 µM) |
| O=C(O)c1cn(C2CC2)c2cc(N3CCN(C(=O)CCCBr)CC3)c(F)cc2c1=O [Compound 10, 7-[4-(4-Bromobutyryl)-piperazin-1-yl]-1-cyclopropyl-6-fluoro-4-oxo-1,4-dihydro-quinoline-3-carboxylic Acid] |  |  |  |  |  |  |  |  |  |  |  |  |  |  |  |  | 16.4 | 0.025 to 0.1 (≈ 0.052 to 0.208 µM) | 10.4 | 60% | lag phase elongated to (E. coli ATCC 25922): 9 h; dose that fully inhibited bacterial growth (P. aeruginosa ATCC 15442): ≥ 0.2 µg/mL |
